Assay results as given in PubChem BioAssay (NCI).
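Cultured in 96-well plates, cells were exposed to test compound for 48 hours across five concentrations. The concentration for 50% growth inhibition is given as GI50. TGI denotes the concentration required for complete inhibition of growth.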

How the values were obtained:
Assay in all cases: inhibition of tumour cell growth, NCI panel, 48 h
786-0 renal = tested on: 786-0 renal
A498 renal = tested on: A498 renal
HOP-62 NSCLC = tested on: HOP-62 NSCLC
K-562 leukemia = tested on: K-562 leukemia
MOLT-4 leukemia = tested on: MOLT-4 leukemia
SK-MEL-2 melanoma = tested on: SK-MEL-2 melanoma
SK-MEL-28 melanoma = tested on: SK-MEL-28 melanoma
SK-OV-3 ovarian = tested on: SK-OV-3 ovarian
SNB-75 CNS = tested on: SNB-75 CNS
UO-31 renal = tested on: UO-31 renal

SMILES | TGI (786-0 renal) | TGI (A498 renal) | TGI (HOP-62 NSCLC) | TGI (K-562 leukemia) | TGI (MOLT-4 leukemia) | TGI (SK-MEL-2 melanoma) | TGI (SK-MEL-28 melanoma) | TGI (SK-OV-3 ovarian) | TGI (SNB-75 CNS) | TGI (UO-31 renal) | GI50 (786-0 renal) | GI50 (A498 renal) | GI50 (HOP-62 NSCLC) | GI50 (K-562 leukemia) | GI50 (MOLT-4 leukemia) | GI50 (SK-MEL-2 melanoma) | GI50 (SK-MEL-28 melanoma) | GI50 (SK-OV-3 ovarian) | GI50 (SNB-75 CNS) | GI50 (UO-31 renal)
CC(CC(=O)Nc1ccc(NC(=O)CC(C)N=NC(N)=O)cc1)N=NC(N)=O (stereo not given) | > 100 µM | > 100 µM | > 100 µM | > 100 µM | > 100 µM | > 100 µM | > 100 µM | > 100 µM | > 100 µM | > 100 µM |  |  |  |  |  |  |  |  |  | 
CNc1nc(-c2ccc3c(N)n[nH]c3c2)cc(N2C[C@@H](C(=O)NC3CCCCC3)CC[C@H]2C)n1 | 14.6 µM | 3.02 µM | 17.9 µM | 39 µM | > 32.5 µM | 8.13 µM | 15.8 µM | 9.97 µM | 7.23 µM | 13.7 µM | 3.28 µM | 0.301 µM | 3.26 µM | 3.78 µM | 1.84 µM | 1.18 µM | 1.68 µM | 0.495 µM | 0.457 µM | 0.854 µM
CCOC(=O)CC(C)C1(C=O)CCCCC1=O (stereo not given) | > 100 µM | > 100 µM | > 100 µM | > 100 µM | > 100 µM | > 100 µM | > 100 µM | > 100 µM | > 100 µM | > 100 µM |  |  |  |  |  |  |  |  |  | 
CN(C)Cc1cc(C(C)(C)C)cc(CN(C)C)c1O | > 100 µM | > 100 µM | > 100 µM | > 100 µM | > 100 µM | > 100 µM | > 100 µM | > 100 µM | > 100 µM | 51.6 µM |  |  |  |  |  |  |  |  |  | 
Oc1ccc(O)c(-n2cccn2)c1-n1cccn1 | > 100 µM | > 100 µM | > 100 µM | > 100 µM | > 10 µM | > 100 µM | > 100 µM | > 100 µM | > 100 µM | > 100 µM |  |  |  |  |  |  |  |  |  | 
COC(=O)C(/C(=N\O)C(=O)Nc1ccc(Br)cc1)c1nc2ccccc2[nH]c1=O (stereo not given) | 90.8 µM | > 100 µM | 92.6 µM | 67 µM | 57.5 µM | 49.2 µM | > 100 µM | > 100 µM | > 100 µM | > 100 µM |  |  |  |  |  |  |  |  |  | 
CC[C@@H](C(=O)[C@@H](C)[C@@H](O)[C@H](C)[C@@H]1O[C@@H]([C@@H](CC)C(=O)O)CC[C@@H]1C)[C@H]1O[C@]2(C=C[C@@H](O)[C@]3(CC[C@@](C)([C@H]4CC[C@](O)(CC)[C@H](C)O4)O3)O2)[C@H](C)C[C@@H]1C | 19.2 µM | 0.821 µM | 16.9 µM | 5.72 µM | 5.17 µM | 2.48 µM | 2.38 µM | 48 µM | 4.31 µM | 25.5 µM | 1.25 µM | 0.0567 µM | 1.12 µM | 0.207 µM | 0.911 µM | 0.279 µM | 1.14 µM | 3.6 µM | 1.05 µM | 1.05 µM
Cc1nc2sc(C(=O)Nc3ccccc3)c(N)c2cc1C(=O)c1ccccc1 | > 50 µM | 3.72 µM | > 50 µM | > 50 µM | > 50 µM | > 50 µM | > 50 µM | > 50 µM | > 50 µM | > 50 µM | 1.81 µM | 0.216 µM | 3.33 µM | 1.69 µM | 2 µM | 2.83 µM | 8.82 µM | 2.35 µM | 1.87 µM | 3.58 µM
